Measurements published in patent US5830996A, “Cyclic peptide antitumor agent from an ascidian” (University of Utah Research Foundation, priority 1996, dated 1998).

Assays:
HCT 116 cells = conditions: MTT assay
Description: (§1) Vitilevuamide prepared according to the procedure of Example 1 or Example 2 was tested against a panel of human tumor cell lines: (a) a colon cancer cell line, HCT 116 (obtained from ATCC), M. Brattain, 41 Cancer Res. 1751 (1986); (b) an adenocarcinoma cell line, A549, D. J. Giard, 51 J. Nat'l Cancer Inst. 1417 (1973); (c) a malignant melanoma cell line, SK-MEL-5, H. F Oteggen, 41 J. Nat'l Cancer Inst. 827 (1968); and (d) a kidney carcinoma cell line, A498, S. Aaronson, 51 J. Nat'l Cancer Inst. 1417 (1973). Cells were cultured according to the procedure of M. C. Alley et al., 48 Cancer Res. 589 (1988), hereby incorporated by reference.
(§2) Screening was performed in a 96-well microtiter plate by the standard 3-[4,5-dimethylthiazol-2-yl]-[…] bromide; thiazolyl blue (MTT) cell inhibition assay adopted for anticancer drug screening at NIH. J. Carmichael et al., 47 Cancer Res. 936 (1987), hereby incorporated by reference. Positive controls were run simultaneously.

A498 cells = conditions: MTT assay
Description: as §1, §2

A549 cells = conditions: MTT assay
Description: as §1, §2

SK-MEL-5 cells = conditions: MTT assay
Description: as §1, §2

C6 rat glioma cells = assay: Tubulin inhibition assay (db-cAMP rounding, MTT readout); format: cell-based; conditions: 4 h treatment then 1 mM db-cAMP, colchicine 25 μg/mL positive control
Description: C6 rat glioma cells (ATCC CCL107) were seeded into the wells of a microtiter plate and then incubated for 1 day. The cells were then treated with a range of vitilevuamide concentrations, normally 5 orders of magnitude, and incubated for 4 additional hours. The cells were then treated for 1 hour with 1 mM dibuteryl-cAMP (db-cAMP), which causes the C6 cells to assume a spherical morphology ("rounding") within 60 minutes due to polymerization of tubulin. Cells that are exposed to tubulin-active compounds, on the other hand, display a different morphological change--flattening and adherence to the substrate. All of the wells were then jet aspirated, and the wells were resupplied with fresh medium containing MTT. The glioma cells metabolize MTT to a dark formazan dye. P. R. Twentyman & M. Luscombe, 56 Br. J. Cancer 279 (1987); F. Denizot & R. Lang, 89 J. Immunol. Methods 271 (1986). Following 4 hours of incubation, absorbance was measured at 450 nm. Colchicine (25 μg/mL) was used as the positive control.

P388 tumor cells = assay: In vivo P388 tumor life span test in CDF1 mice; conditions: days 1, 5, 9, CDF1 mice with P388
Description: Vitilevuamide was also screened for in vivo activity by injecting CDF1 mice intraperitoneally on day 0 with 1×10^6 P388 tumor cells. Five animals were randomly assigned to a group. On days 1, 5, and 9 after tumor implantation, these mice were treated intraperitoneally with either a placebo or the drug. Animals were checked twice daily, and the day of death of each mouse was recorded. A positive drug response is defined as a greater than 25% increase in the mean life span (% ILS) relative to the placebo control.

C=C1NC(=O)[C@H]([C@@H](C)CC)NC(=O)C2CSCC(NC(=O)CCC(=O)O)C(=O)N[C@H](Cc3ccccc3)C(=O)N[C@H](C)C(=O)NC(CC(C)CC)C(=O)N[C@@H](C(=O)N[C@H](Cc3ccccc3)C(=O)N3CCC[C@H]3C(=O)N2)[C@@H](C)OC(=O)[C@H](CO)NC(=O)C(C(O)COC)N(C)C(=O)[C@@H](C(C)C)NC(=O)C(CC(C)CC)NC1=O (stereo partly drawn) [vitilevuamide]
50% inhibitory concentration (IC50) (HCT 116 cells): 0.01 µg/mL
50% inhibitory concentration (IC50) (A498 cells): 5 µg/mL
50% inhibitory concentration (IC50) (A549 cells): 0.2 µg/mL
50% inhibitory concentration (IC50) (SK-MEL-5 cells): 0.5 µg/mL
concentration showing the same effect as colchicine (C6 rat glioma cells): 4 µg/mL
% ILS (increase in mean life span relative to placebo) (P388 tumor cells; 0.006 mg/kg/dose i.p.): 8%
% ILS (increase in mean life span relative to placebo) (P388 tumor cells; 0.012 mg/kg/dose i.p.): 20%
% ILS (increase in mean life span relative to placebo) (P388 tumor cells; 0.03 mg/kg/dose i.p.): 70%
% ILS (increase in mean life span relative to placebo) (P388 tumor cells; 0.06 mg/kg/dose i.p.): -13%
toxicity remark at dose (P388 tumor cells; 0.06 mg/kg/dose i.p.): toxic
% ILS (increase in mean life span relative to placebo) (P388 tumor cells; 0.13 mg/kg/dose i.p.): -45%
toxicity remark at dose (P388 tumor cells; 0.13 mg/kg/dose i.p.): toxic
